# Assay results as given in patent KR20170021349A, “다양한 질병의 치료를 위한 jnk 신호 전달 경로의 세포 투과성 펩타이드 억제자의 새로운 용도” (자이겐 인플라메이션 리미티드, priority 2014, dated 2017).
# What was measured:
# [1] = tested on: Wistar rats; assay: Renal ischemia/reperfusion, 40 min clamping; assay type: in vivo, rat; details: 2 mg/kg i.v. 1 h after clamping; 24 h
# [2] = tested on: recombinant JNK1, JNK2, JNK3; assay: Solid-phase kinase assay: JNK-mediated phosphorylation of c-Jun, ATF2, Elk1; assay type: biochemical; details: GST-Jun (aa 1-73), 0-250 μM
# [3] = tested on: primary mouse cortical neurons (WT); assay: Aβ42-induced stress/apoptosis in WT cortical neurons; assay type: cell-based
# [4] = tested on: TC-3 cells; assay: IL-1-induced pancreatic beta-cell apoptosis; assay type: cell-based; details: 1 μM single addition, 15 days IL-1
# [5] = tested on: female Sprague-Dawley rats; assay: CYP-induced acute cystitis, intravenous treatment, visceral pain; assay type: in vivo, rat; details: 2 mg/kg i.v.
# [6] = tested on: rat pancreatic islets; assay: Rat islet isolation after warm ischemia; assay type: cell-based
# [7] = tested on: C57BL/6 mice; assay: Bleomycin-induced acute lung inflammation (COPD model); assay type: in vivo, mouse
# [8] = tested on: Brown Norway rats; assay: Argon laser-induced choroidal neovascularization (ChNV), intravitreal; assay type: in vivo, rat
# [9] = Phase II trial, post-surgery intraocular inflammation, vs dexamethasone eye drops; assay type: in vivo, human
# [10] = 10 μM pre-treatment, 2 μM Aβ42 5 h (Example 49)
# [11] = peptide pre-treatment 1 h (XG-102 10 μM), 2 μM Aβ42
substance,measurement,setting,value
NH2-DQSRPVQPFLNLTTPRKPRPPRRRQRRKKRG-COOH (H-DQSRPVQPFLNLTTPRKPRPPRRRQRRKKRG-OH; also: D-amino acids (positions not given here)) [XG-102],serum creatinine vs untreated ischemic rats,[1],보다 낮은 혈청 크레아티닌을 보였다
same,fold less efficient than L-TAT-IB1(s) in decreasing JNK-mediated c-Jun phosphorylation,[2],10-20 배
same,JNK activity (pJNK/JNK),[3]; [10],변화는 관찰되지 않았다
same,decrease of apoptosis (cleaved PARP),[3]; [10],37%
same,decrease of caspase 3 activity,"[3]; 10 μM, 2 μM Aβ42",71%
same,decrease of cleaved PARP expression level,"[3]; 10 μM, 2 μM Aβ42",55%
same,decrease of cleaved caspase 3 expression level,"[3]; 10 μM, 2 μM Aβ42",93%
same,change of c-Jun expression vs stressed neurons without peptide,[3]; [11],-65%
same,change of c-Jun phosphorylation vs stressed neurons without peptide,[3]; [11],-74%
same,long-term protection against IL-1-induced cell death,[4],보호를 부여할 수 있었으나
same,nociceptive threshold vs vehicle,"[5]; 24 h after CYP, p<0.01",현저하게 증가하였다
same,AUC 1-8 g (allodynia) vs vehicle,[5]; p<0.001,현저하게 감소되었다
same,AUC 8-60 g (hyperalgesia) vs vehicle,[5]; p<0.001,현저하게 감소되었다
same,nociceptive scores vs vehicle,[5]; p<0.001,현저하게 감소시켰다
same,islet function (static insulin secretion) after 18 h culture,[6]; 15-min ischemia,섬 기능에 영향을 미치지 않았다
same,glucose-induced insulin secretion vs ischemic rats,"[6]; 30-min ischemia, 100 μM",더 높았으며
same,islet apoptosis and necrosis,"[6]; 30-min ischemia, 100 μM",세포 자멸 및 괴사를 감소시키는
same,JNK and PAF2 phosphorylation induced by 15-min ischemia,"[6]; Western blot, Fig. 56",투여량 의존적으로 감소되는
same,neutrophil recruitment or other cell types in BAL,"[7]; 0.001 mg/kg s.c. single dose, 24 h",영향을 미치지 않았다
same,neutrophil recruitment and total cell number in BAL,"[7]; 0.1 mg/kg s.c. single dose, 24 h",현저하게 감소시켰다
same,lung MPO level,[7]; MPO not induced by bleomycin,영향을 주지 않았다
same,TNF level in BALF,[7]; TNF very low after BLM,감소하는 경향이 관찰되었다
same,mean score of fluorescein leakage (mean ± SD),"[8]; 300 μg/ml IVT D0,D7, day 14",2.4 ± 0.9
same,mean score of fluorescein leakage (mean ± SD),"[8]; 300 μg/ml IVT D0,D7, day 21",2.4 ± 0.8
same,% spots with score 0,"[8]; 300 μg/ml, day 14",7%
same,% spots with score 1,"[8]; 300 μg/ml, day 14",9%
same,% spots with score 2,"[8]; 300 μg/ml, day 14",18%
same,% spots with score 3,"[8]; 300 μg/ml, day 14",66%
same,reduction % vs vehicle,"[8]; 300 μg/ml, day 14, p<0.05",17%
same,% spots with score 0,"[8]; 300 μg/ml, day 21",5%
same,% spots with score 1,"[8]; 300 μg/ml, day 21",9%
same,% spots with score 2,"[8]; 300 μg/ml, day 21",32%
same,% spots with score 3,"[8]; 300 μg/ml, day 21",55%
same,reduction % vs vehicle,"[8]; 300 μg/ml, day 21",-9%
same,mean score of fluorescein leakage (mean ± SD),"[8]; 3000 μg/ml IVT D0,D7, day 14",1.7 ± 0.7
same,mean score of fluorescein leakage (mean ± SD),"[8]; 3000 μg/ml IVT D0,D7, day 21",2.3 ± 0.7
same,% spots with score 0,"[8]; 3000 μg/ml, day 14",0%
same,% spots with score 1,"[8]; 3000 μg/ml, day 14",44%
same,% spots with score 2,"[8]; 3000 μg/ml, day 14",44%
same,% spots with score 3,"[8]; 3000 μg/ml, day 14",12%
same,reduction % vs vehicle,"[8]; 3000 μg/ml, day 14, p<0.001",41%
same,% spots with score 0,"[8]; 3000 μg/ml, day 21",0%
same,% spots with score 1,"[8]; 3000 μg/ml, day 21",14%
same,% spots with score 2,"[8]; 3000 μg/ml, day 21",47%
same,% spots with score 3,"[8]; 3000 μg/ml, day 21",40%
same,reduction % vs vehicle,"[8]; 3000 μg/ml, day 21",-5%
same,general behaviour of animals,[8]; both doses IVT,변화되지 않는다
same,"AEs leading to interruption of study treatment, events (%)",[9]; 90 μg,11 (14.1%)
same,"mild AEs, number of events (% of reported events)",[9]; 90 μg,55 (70.5%)
same,"moderate AEs, number of events (%)",[9]; 90 μg,6 (7.7%)
same,patients with an AE within 24 h of administration,[9]; 90 μg,34%
same,patients with intraocular pressure increased,[9]; 90 μg,23%
same,"severe AEs, number of events (%)",[9]; 90 μg,17 (21.7%)
same,"SOC eye disorders, patients","[9]; 90 μg (26 patients), p=0.025 vs dexamethasone",55%
same,"premature withdrawal of study eye drops, patients (%)",[9]; 90 μg (N=47),10 (21.3%)
same,overall tolerability,[9]; 90 μg and 900 μg,내약성이 우수하였다
same,"anterior chamber cell grade vs dexamethasone, days 7 and 14","[9]; 90 μg and 900 μg, FAS",통계적으로 현저한 차이가 없었다
same,"anterior chamber flare grade vs dexamethasone, days 7, 14, 28","[9]; 90 μg and 900 μg, FAS",통계적으로 현저한 차이가 없었다
same,"difference in anterior chamber cell grade vs dexamethasone, day 28","[9]; 90 μg single subconj. inj., PP, 95% CI -0.214-0.385, p=0.003",0.086
same,patients with an adverse event,"[9]; 90 μg, 31/47",66%
same,"difference in anterior chamber cell grade vs dexamethasone, day 28","[9]; 90 μg, FAS, 95% CI -0.215-0.321, p<0.001",0.053
same,odds of cleared ocular inflammation vs usual treatment group,"[9]; 90 μg, FAS, day 7",0.52
same,odds of cleared ocular inflammation vs usual treatment group,"[9]; 90 μg, FAS, day 14",0.85
